Data taken from US9102638B2, “Amidobenzothiazoles and process for the preparation thereof” (COUNCIL OF SCIENTIFIC & INDUSTRIAL RESEARCH, priority 2011, dated 2015).

Tests used:
Assay type in all cases: cell-based
[1] = test system: NCI-H226; assay: In vitro cytotoxicity, NCI screen: NCI-H226 (Non-small cell lung); settings: Homo sapiens; NCI-H226, Non-small cell lung panel, NCI protocol; read-out: GI50 values (μM conc.)
Experimental: (§1) The in vitro anticancer activity studies for these amidobenzothiazoles were carried out at the National Cancer Institute, Maryland, USA.
(§2) The amidobenzothiazoles have been tested against sixty human tumor cell lines derived from nine cancer types (leukemia cancer cell line, non-small cell lung cancer cell line, colon cancer cell line, CNS cancer cell line, melanoma cancer cell line, ovarian cancer cell line, renal cancer cell line, prostate cancer cell line and breast cancer cell lines). For these compounds results are expressed in GI50 values of that particular cancer cell at micro molar (μM) concentration as per NCI protocol.

[2] = test system: KM12; assay: In vitro cytotoxicity, NCI screen: KM12 (Colon); settings: Homo sapiens; KM12, Colon panel, NCI protocol; read-out: GI50 values (μM conc.)
Experimental: as §1, §2

[3] = test system: OVCAR-4; assay: In vitro cytotoxicity, NCI screen: OVCAR-4 (Ovarian); settings: Homo sapiens; OVCAR-4, Ovarian panel, NCI protocol; read-out: GI50 values (μM conc.)
Experimental: as §1, §2

[4] = test system: DU-145; assay: In vitro cytotoxicity, NCI screen: DU-145 (Prostate); settings: Homo sapiens, read-out: GI50 values (μM conc.)
Experimental: as §1, §2

[5] = test system: HS 578T; assay: In vitro cytotoxicity, NCI screen: HS 578T (Breast); settings: Homo sapiens, read-out: GI50 values (μM conc.)
Experimental: as §1, §2

[6] = test system: BT-549; assay: In vitro cytotoxicity, NCI screen: BT-549 (Breast); settings: Homo sapiens, read-out: GI50 values (μM conc.)
Experimental: as §1, §2

[7] = test system: OVCAR-5; assay: In vitro cytotoxicity, NCI screen: OVCAR-5 (Ovarian); settings: Homo sapiens; OVCAR-5, Ovarian panel, NCI protocol; read-out: GI50 values (μM conc.)
Experimental: as §1, §2

[8] = test system: IGROV1; assay: In vitro cytotoxicity, NCI screen: IGROV1 (Ovarian); settings: Homo sapiens, IGROV-1; IGROV1, Ovarian panel, NCI protocol; read-out: GI50 values (μM conc.)
Experimental: as §1, §2

[9] = test system: UO-31; assay: In vitro cytotoxicity, NCI screen: UO-31 (Renal); settings: Homo sapiens; UO-31, Renal panel, NCI protocol; read-out: GI50 values (μM conc.)
Experimental: as §1, §2

[10] = test system: NCI/ADR-RES; assay: In vitro cytotoxicity, NCI screen: NCI/ADR-RES (Ovarian); settings: Homo sapiens, Ovarian panel, NCI protocol, read-out: GI50 values (μM conc.)
Experimental: as §1, §2

[11] = test system: UACC-257; assay: In vitro cytotoxicity, NCI screen: UACC-257 (Melanoma); settings: Homo sapiens; UACC-257, Melanoma panel, NCI protocol; read-out: GI50 values (μM conc.)
Experimental: as §1, §2

[12] = test system: HCC-2998; assay: In vitro cytotoxicity, NCI screen: HCC-2998 (Colon); settings: Homo sapiens; HCC-2998, Colon panel, NCI protocol; read-out: GI50 values (μM conc.)
Experimental: as §1, §2

[13] = test system: SK-OV-3; assay: In vitro cytotoxicity, NCI screen: SK-OV-3 (Ovarian); settings: Homo sapiens; SK-OV-3, Ovarian panel, NCI protocol; read-out: GI50 values (μM conc.)
Experimental: as §1, §2

[14] = test system: K-562; assay: In vitro cytotoxicity, NCI screen: K-562 (Leukemia); settings: Homo sapiens, K562; read-out: GI50 values (μM conc.)
Experimental: as §1, §2

[15] = test system: SW-620; assay: In vitro cytotoxicity, NCI screen: SW-620 (Colon); settings: Homo sapiens; SW-620, Colon panel, NCI protocol; read-out: GI50 values (μM conc.)
Experimental: as §1, §2

[16] = test system: SK-MEL-5; assay: In vitro cytotoxicity, NCI screen: SK-MEL-5 (Melanoma); settings: Homo sapiens; SK-MEL-5, Melanoma panel, NCI protocol; read-out: GI50 values (μM conc.)
Experimental: as §1, §2

[17] = test system: UACC-62; assay: In vitro cytotoxicity, NCI screen: UACC-62 (Melanoma); settings: Homo sapiens; UACC-62, Melanoma panel, NCI protocol; read-out: GI50 values (μM conc.)
Experimental: as §1, §2

[18] = test system: TK-10; assay: In vitro cytotoxicity, NCI screen: TK-10 (Renal); settings: Homo sapiens; TK-10, Renal panel, NCI protocol; read-out: GI50 values (μM conc.)
Experimental: as §1, §2

[19] = test system: A549/ATCC; assay: In vitro cytotoxicity, NCI screen: A549/ATCC (Non-small cell lung); settings: Homo sapiens, Non-small cell lung panel, NCI protocol, read-out: GI50 values (μM conc.)
Experimental: as §1, §2

[20] = test system: SNB-75; assay: In vitro cytotoxicity, NCI screen: SNB-75 (CNS); settings: Homo sapiens; SNB-75, CNS panel, NCI protocol; read-out: GI50 values (μM conc.)
Experimental: as §1, §2

[21] = test system: MCF7; assay: In vitro cytotoxicity, NCI screen: MCF7 (Breast); settings: Homo sapiens; MCF7, Breast panel, NCI protocol; read-out: GI50 values (μM conc.)
Experimental: as §1, §2

[22] = test system: COLO-205; assay: In vitro cytotoxicity, NCI screen: COLO-205 (Colon); settings: Homo sapiens; COLO-205, Colon panel, NCI protocol; read-out: GI50 values (μM conc.)
Experimental: as §1, §2

[23] = test system: NCI-H322M; assay: In vitro cytotoxicity, NCI screen: NCI-H322M (Non-small cell lung); settings: Homo sapiens, Non-small cell lung panel, NCI protocol, read-out: GI50 values (μM conc.)
Experimental: as §1, §2

[24] = test system: SK-MEL-28; assay: In vitro cytotoxicity, NCI screen: SK-MEL-28 (Melanoma); settings: Homo sapiens; SK-MEL-28, Melanoma panel, NCI protocol; read-out: GI50 values (μM conc.)
Experimental: as §1, §2

[25] = test system: prostate cancer cell lines; assay: In vitro activity against prostate cancer cell lines (panel range); settings: Homo sapiens, read-out: GI50 values, range over the listed compounds and the panel
Experimental: as §1, §2

[26] = test system: 786-0; assay: In vitro cytotoxicity, NCI screen: 786-0 (Renal); settings: Homo sapiens; 786-0, Renal panel, NCI protocol; read-out: GI50 values (μM conc.)
Experimental: as §1, §2

[27] = test system: LOX IMVI; assay: In vitro cytotoxicity, NCI screen: LOX IMVI (Melanoma); settings: Homo sapiens, Melanoma panel, NCI protocol, read-out: GI50 values (μM conc.)
Experimental: as §1, §2

[28] = test system: MDA-MB-435; assay: In vitro cytotoxicity, NCI screen: MDA-MB-435 (Melanoma); settings: Homo sapiens; MDA-MB-435, Melanoma panel, NCI protocol; read-out: GI50 values (μM conc.)
Experimental: as §1, §2

[29] = test system: T-47D; assay: In vitro cytotoxicity, NCI screen: T-47D (Breast); settings: Homo sapiens, T47D, Breast panel, NCI protocol, read-out: GI50 values (μM conc.)
Experimental: as §1, §2

In the case of `COc1ccc(/C=C/C(=O)c2cc(OC)c(OC)c(OC)c2)cc1OCC(=O)Nc1nc2ccc(OC(F)(F)F)cc2s1` [Compound 9j, N1-(6-(trifluoromethoxy)-1,3-benzothiazol-2-yl)-2-{2-methoxy-5-[(E)-3-oxo-3-(3,4,5-trimethoxyphenyl)-1-propenyl]phenoxy}acetamide], the GI50 [1] is reported as 3.35 µM, the GI50 [2] is reported as 1.51 µM and the GI50 [3] is reported as 2.07 µM. The GI50 [4] was 1.56 µM, the GI50 [5] was 3.08 µM and the GI50 [6] was 2.71 µM. It also gave a GI50 [7] of 4.76 µM, a GI50 [8] of 2.54 µM and a GI50 [9] of 1.61 µM. The GI50 [10] was 0.49 µM, the GI50 [11] was 8.08 µM and the GI50 [12] was 6.18 µM. The GI50 [13] was 2.16 µM, the GI50 [14] was 0.43 µM and the GI50 [15] was 1.08 µM. It also gave a GI50 [16] of 2.03 µM, a GI50 [17] of 9.52 µM and a GI50 [18] of 2.08 µM. It also gave a GI50 [19] of 1.99 µM, a GI50 [20] of 0.34 µM and a GI50 [21] of 1.32 µM. It also gave a GI50 [22] of 6.37 µM, a GI50 [23] of 2.77 µM and a GI50 [24] of 3.31 µM. The GI50 [25] was 180 to 22900 nM, the GI50 [26] was 2.26 µM and the GI50 [27] was 0.47 µM. The GI50 [28] was 0.3 µM and the GI50 [29] was 3.08 µM.
